Measured values as given in publication PMC5074515 (PLoS ONE, 2016).
≈ marks a conversion by molar mass, not a printed value. Read-outs that look alike come from different tables or passages of the source.

Tests used:
Mtb FtsZ = Mtb FtsZ (Mycobacterium tuberculosis, UniProt P9WN95); experiment: biochemical; format: biochemical; conditions: mean ± standard deviation, at least three times per assay; NA = not active up to 100 μM; read-out: Mtb FtsZ Polymerization IC50
tubulin = experiment: Tubulin polymerization assay; format: biochemical, human; conditions: for effect on human tubulin: at 100 μM
Mtb H37Ra (ATCC 25177) = experiment: In vitro screen versus Mtb H37Ra (Alamar blue microdilution broth assay, MIC99); format: cell-based, M. tuberculosis; conditions: Mycobacterium tuberculosis
Procedure: The initial screening set and selected other compounds were tested for their inhibitory activity against Mtb H37Ra (ATCC 25177) and MAC NJ211 strains. Screening was performed at 1.28 and 12.8 μg/mL in Middlebrook 7H9 broth supplemented with 0.2% glycerol and ADC enrichment using a colorimetric (Alamar blue) microdilution broth assay by reported methods.[15]

MAC NJ211 = experiment: In vitro screen versus MAC NJ211 (Alamar blue microdilution broth assay, MIC99); format: cell-based; conditions: lowest drug concentration that completely inhibited growth; for MIC99: read-out: MAC NJ211 MIC99
Mtb H37Rv [1] = experiment: In vitro qHTS assay against Mtb H37Rv (IC90); format: cell-based, M. tuberculosis; conditions: Mycobacterium tuberculosis, H37RV; for IC90: concentration that inhibits bacterial growth by 90%, read-out: Mtb H37Rv IC90
[2] = cited from earlier work
Mtb H37Rv [3] = experiment: TAACF Alamar blue assay against Mtb H37Rv (IC90); format: cell-based, M. tuberculosis; conditions: Mycobacterium tuberculosis
[4] = Acute toxicity mouse model; format: in vivo, mice; conditions: single dose of 300 mg/kg
in vitro = conditions: African green monkey
[5] = Rapid PK mouse model (bioavailability); conditions: mice, oral gavage, 300 mg/kg
[6] = Cytotoxicity (CC50) in Vero cells, TAACF; conditions: African green monkey
Vero cells = experiment: Cytotoxicity (CC50) in Vero cells, TAACF; conditions: CC50 in Vero cells to IC90 against Mtb H37Rv
[7] = system: M. tuberculosis 41 (Mtb 41) FtsZ reporter strain; format: cell-based
[8] = lowest drug concentration that completely inhibited growth, read-out: Mtb H37Ra MIC99
[9] = same MIC99 given in μM, read-out: Mtb H37Ra MIC99 (concentration in μM in parentheses)

Mtb FtsZ, sequence (P9WN95 whole entry): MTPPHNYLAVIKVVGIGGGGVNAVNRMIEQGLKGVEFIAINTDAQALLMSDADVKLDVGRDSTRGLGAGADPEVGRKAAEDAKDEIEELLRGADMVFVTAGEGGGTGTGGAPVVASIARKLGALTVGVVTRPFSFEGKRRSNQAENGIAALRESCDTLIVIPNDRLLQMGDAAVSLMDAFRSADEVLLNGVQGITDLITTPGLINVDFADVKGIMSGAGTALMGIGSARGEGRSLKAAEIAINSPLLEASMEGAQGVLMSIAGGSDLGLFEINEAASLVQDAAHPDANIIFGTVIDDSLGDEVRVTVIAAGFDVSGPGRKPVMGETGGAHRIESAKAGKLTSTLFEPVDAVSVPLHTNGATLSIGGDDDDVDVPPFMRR

Which results are given for `CSc1ccc(/C=C2/C(C)=C(CC(=O)NCCN(C)C)c3cc(F)ccc32)cc1` [Compound 18, (Z)-N-(2-(dimethylamino)ethyl)-2-(5-fluoro-2-methyl-1-(4-(methylthio)benzylidene)-1H-inden-3-yl)acetamide]?
IC50 (Mtb FtsZ): 39.4 ± 4.9 µM; effect on human tubulin (tubulin): no effect; effect on human tubulin (tubulin; listed as SSA): no inhibition; MIC99 (Mtb H37Ra (ATCC 25177); [8]): 8 mg/L; MIC99 (Mtb H37Ra (ATCC 25177); [9]): 19.5 µM; MIC99 (MAC NJ211): 16 mg/L (≈ 39 µM); IC90 (Mtb H37Rv [1]): 7.29 ± 0.23 µM; tolerated dose in mice ([2]; over 17 days): up to 300 mg/kg

For `CSc1ccc(/C=C2/C(C)=C(CC(=O)O)c3cc(F)ccc32)cc1` [Sulindac sulfide, reference compound], which “tolerated dose in mice” value ([2]; over 20 days) is on record?
The value was “up to 50 mg/kg”.

What does the source list for `CC[n+]1c(/C=C/N(C)c2ccccc2)n(-c2ccccc2)c2ccc(-c3nc4ccccc4s3)cc21` [Compound 8, Zantrin Z2]?
IC50 (Mtb FtsZ): 3.5 ± 0.3 µM; IC50 (tubulin; mean ± standard deviation, at least three times per assay, NA = not active up to 100 μM): > 100 µM; MIC (Mtb H37Ra (ATCC 25177); lowest drug concentration that completely inhibited growth): 1 mg/L; MIC (MAC NJ211): 1 mg/L; IC90 (Mtb H37Rv [3]; read-out: Mtb H37Rv IC90): 1.56 mg/L; IC90 (Mtb H37Rv [3]; read-out: Mtb H37Rv IC90 (concentration in µM in parentheses)): 3.2 µM; ill effects to the mice [4]: no ill effects; CC50 (in vitro): 1.7 mg/L; Bioavailability [5]: no bioavailability and None; CC50 [6]: 3.49 µM; Selectivity Index (CC50/IC90) (Vero cells): 1.09

Which results are given for `COc1cc(/C=C2\C=C(CC(=O)NCCN(C)C)c3cc(F)ccc32)cc(OC)c1OC` [Compound 62, (E)-N-(2-(dimethylamino)ethyl)-2-(5-fluoro-1-(3,4,5-trimethoxybenzylidene)-1H-inden-3-yl)acetamide]?
IC50 (Mtb FtsZ): 43.3 ± 9.8 µM; MIC99 (Mtb H37Ra (ATCC 25177); [8]): 32 mg/L; MIC99 (Mtb H37Ra (ATCC 25177); [9]): 72.5 µM; MIC99 (MAC NJ211): > 64 mg/L; inhibition at 50 µM (Mtb H37Rv [1]; at 50 μM): 82%; IC90 (Mtb H37Rv [1]): > 100 µM; FtsZ ring assembly in Mtb 41 [7]: inhibit FtsZ ring assembly; growth of Mtb 41 [7]: significant growth inhibition

Which results are given for `COc1cc(/C=C2\C=C(CC(=O)NCCN3CCCC3)c3cc(F)ccc32)cc(OC)c1OC` [Compound 63, (E)-2-(5-fluoro-1-(3,4,5-trimethoxybenzylidene)-1H-inden-3-yl)-N-(2-(pyrrolidin-1-yl)ethyl)acetamide]?
IC50 (Mtb FtsZ): 37.6 ± 5.7 µM; MIC99 (Mtb H37Ra (ATCC 25177); [8]): 32 mg/L; MIC99 (Mtb H37Ra (ATCC 25177); [9]): 68.5 µM; MIC99 (MAC NJ211): > 64 mg/L; IC90 (Mtb H37Rv [1]): 25.5 ± 0.33 µM; FtsZ ring assembly in Mtb 41 [7]: inhibit FtsZ ring assembly; growth of Mtb 41 [7]: significant growth inhibition; bacterial cell length of Mtb 41 ([7]; 75 μM, brightfield microscopy): clear increase in bacterial cell length
